In brackets after ≈: the same amount, converted by molar mass.
How the values were obtained:
Aeromonas sp. = experiment: In vitro antibacterial activity against Aeromonas species.; type: functional
[1] = system: Acinetobacter calcoaceticus subsp. anitratus; experiment: In vitro antibacterial activity against Acinetobacter anitratus; type: functional
Bacteroides fragilis = experiment: In vitro antibacterial activity against Bacteroides fragilis; type: functional
Moraxella catarrhalis = experiment: In vitro antibacterial activity against Branhamella catarrhalis; type: functional
Clostridium perfringens = experiment: In vitro antibacterial activity against Clostridium perfringens; type: functional
Citrobacter freundii = experiment: In vitro antibacterial activity against Citrobacter freundii; type: functional
Enterococcus faecalis [2] = experiment: In vitro antibacterial activity against Enterococcus faecalis; type: functional
Enterococcus faecium = experiment: In vitro antibacterial activity against Enterococcus faecium; type: functional
Enterococcus faecalis [3] = experiment: In vitro antibacterial activity against Enterococcus faecalis ATCC 29212; type: functional
Escherichia coli [4] = experiment: In vitro antibacterial activity against Escherichia coli; type: functional
Escherichia coli [5] = experiment: In vitro antibacterial activity against Escherichia. coli ATCC 25922; type: functional
Escherichia coli [6] = experiment: In vitro antibacterial activity against Escherichia. coli L; type: functional
Escherichia coli [7] = experiment: In vitro antibacterial activity against Escherichia. coli SHV; type: functional
Escherichia coli [8] = experiment: In vitro antibacterial activity against Escherichia. coli TEM1; type: functional
Escherichia coli [9] = experiment: In vitro antibacterial activity against Escherichia. coli TEM2; type: functional
Klebsiella aerogenes = experiment: In vitro antibacterial activity against Enterobacter aerogenes; type: functional
Haemophilus influenzae = experiment: In vitro antibacterial activity against Haemophilus influenzae; type: functional
Klebsiella pneumoniae = experiment: In vitro antibacterial activity against Klebsiella pneumoniae; type: functional
Listeria monocytogenes = experiment: In vitro antibacterial activity against Listeria monocytogenes; type: functional
Morganella morganii = experiment: In vitro antibacterial activity against Morganella morganii; type: functional
Pseudomonas aeruginosa [10] = experiment: In vitro antibacterial activity against Pseudomonas aeruginosa VR5; type: functional
Proteus vulgaris = experiment: In vitro antibacterial activity against Proteus vulgaris; type: functional
Providencia stuartii = experiment: In vitro antibacterial activity against Providencia stuartii; type: functional
Providencia rettgeri = experiment: In vitro antibacterial activity against Providencia rettgerii; type: functional
Proteus mirabilis = experiment: In vitro antibacterial activity against Proteus mirabilis; type: functional
Pseudomonas aeruginosa [11] = experiment: In vitro antibacterial activity against Pseudomonas aeruginosa; type: functional
Pseudomonas aeruginosa [12] = experiment: In vitro antibacterial activity against Pseudomonas aeruginosa ATCC 27853; type: functional
Pseudomonas aeruginosa [13] = experiment: In vitro antibacterial activity against Pseudomonas aeruginosa G242; type: functional
[14] = system: Staphylococcus epidermidis; experiment: In vitro antibacterial activity against Staphylococcus epidermidis; type: functional
Staphylococcus aureus [15] = experiment: In vitro antibacterial activity against Staphylococcus aureus MR; type: functional
Staphylococcus aureus [16] = experiment: In vitro antibacterial activity against Staphylococcus aureus MS; type: functional
Streptococcus agalactiae = experiment: In vitro antibacterial activity against Streptococcus agalactiae B; type: functional
Staphylococcus aureus [17] = experiment: In vitro antibacterial activity against Staphylococcus aureus ATCC 25923; type: functional
Staphylococcus aureus [18] = experiment: In vitro antibacterial activity against Staphylococcus aureus ATCC 29213; type: functional
Staphylococcus aureus [19] = experiment: In vitro antibacterial activity against Staphylococcus aureus MR09; type: functional
Staphylococcus aureus [20] = experiment: In vitro antibacterial activity against Staphylococcus aureus MR13; type: functional
Streptococcus pneumoniae = experiment: In vitro antibacterial activity against Streptococcus pneumoniae; type: functional
Yersinia sp. = experiment: In vitro antibacterial activity against Yersinia species; type: functional, yersinia spp; details: Yersinia sp. (in: enterobacteria)
[21] = system: Stenotrophomonas maltophilia; experiment: In vitro antibacterial activity against Xanthomonas maltophilia; type: functional
Streptococcus pyogenes = experiment: In vitro antibacterial activity against Streptococcus pyogenes A; type: functional

`CC1(C)S[C@@H]2[C@H](NC(=O)[C@H](N)c3ccccc3)C(=O)N2[C@H]1C(=O)O.CC1(C)[C@H](C(=O)O)N2C(=O)C[C@H]2S1(=O)=O` gave an MIC90 (Aeromonas sp.) of over 32 µg/mL, an MIC90 [1] of 32 µg/mL and an MIC90 (Bacteroides fragilis) of 4 µg/mL. The MIC90 (Moraxella catarrhalis) was 0.5 µg/mL, the MIC90 (Clostridium perfringens) was 0.12 µg/mL and the MIC90 (Citrobacter freundii) was over 64 µg/mL. It also gave an MIC90 (Enterococcus faecalis [2]) of 2 µg/mL, an MIC90 (Enterococcus faecium) of over 64 µg/mL and an MIC (Enterococcus faecalis [3]) of 1 µg/mL. The MIC90 (Escherichia coli [4]) was 8 µg/mL, the MIC (Escherichia coli [5]) was 8 µg/mL and the MIC (Escherichia coli [6]) was 8 µg/mL. The MIC (Escherichia coli [7]) was over 32 µg/mL, the MIC (Escherichia coli [8]) was over 32 µg/mL and the MIC (Escherichia coli [9]) was 8 µg/mL. It also gave an MIC90 (Klebsiella aerogenes) of over 64 µg/mL, an MIC90 (Haemophilus influenzae) of 1 µg/mL and an MIC90 (Klebsiella pneumoniae) of 16 µg/mL. The MIC90 (Listeria monocytogenes) was 0.5 µg/mL, the MIC90 (Morganella morganii) was 16 µg/mL and the MIC (Pseudomonas aeruginosa [10]) was 0.12 µg/mL. It also gave an MIC90 (Proteus vulgaris) of 8 µg/mL, an MIC90 (Providencia stuartii) of 64 µg/mL and an MIC90 (Providencia rettgeri) of 32 µg/mL. It also gave an MIC90 (Proteus mirabilis) of 32 µg/mL, an MIC90 (Pseudomonas aeruginosa [11]) of over 64 µg/mL and an MIC (Pseudomonas aeruginosa [12]) of 32 µg/mL. The MIC (Pseudomonas aeruginosa [13]) was over 32 µg/mL, the MIC90 [14] was 4 µg/mL and the MIC90 (Staphylococcus aureus [15]) was 32 µg/mL. It also gave an MIC90 (Staphylococcus aureus [16]) of 1 µg/mL, an MIC90 (Streptococcus agalactiae) of 0.06 µg/mL and an MIC (Staphylococcus aureus [17]) of 0.03 µg/mL. It also gave an MIC (Staphylococcus aureus [18]) of 0.25 µg/mL, an MIC (Staphylococcus aureus [19]) of 4 µg/mL and an MIC (Staphylococcus aureus [20]) of 0.12 µg/mL. The MIC90 (Streptococcus pneumoniae) was 0.03 µg/mL, the MIC90 (Yersinia sp.) was 32 µg/mL and the MIC90 [21] was over 64 µg/mL. For the same compound, the MIC90 (Streptococcus pyogenes) was 0.03 µg/mL.

Compound `CC1(C)S[C@@H]2[C@H](NC(=O)[C@H](N)c3ccc(O)cc3)C(=O)N2[C@H]1C(=O)O` [AMOXICILLIN] has an MIC90 (Aeromonas sp.) of over 32 µg/mL, an MIC90 (Bacteroides fragilis) of 32 µg/mL (≈ 87.6 µM) and an MIC90 (Moraxella catarrhalis) of 2 µg/mL (≈ 5.47 µM). The MIC90 (Clostridium perfringens) was 0.06 µg/mL (≈ 0.164 µM), the MIC90 (Enterococcus faecalis [2]) was 0.5 µg/mL (≈ 1.37 µM) and the MIC90 (Enterococcus faecium) was 32 µg/mL (≈ 87.6 µM). For the same compound, the MIC90 (Haemophilus influenzae) was 1 µg/mL (≈ 2.74 µM), the MIC90 (Klebsiella pneumoniae) was over 64 µg/mL and the MIC90 (Listeria monocytogenes) was 0.5 µg/mL (≈ 1.37 µM). The MIC90 [14] was 4 µg/mL (≈ 10.9 µM), the MIC90 (Staphylococcus aureus [15]) was over 32 µg/mL and the MIC90 (Staphylococcus aureus [16]) was 1 µg/mL (≈ 2.74 µM). For the same compound, the MIC90 (Streptococcus agalactiae) was 0.06 µg/mL (≈ 0.164 µM), the MIC90 (Streptococcus pneumoniae) was 0.015 µg/mL (≈ 0.041 µM) and the MIC90 (Yersinia sp.) was over 64 µg/mL. It also gave an MIC90 (Streptococcus pyogenes) of 0.015 µg/mL (≈ 0.041 µM).
